Data from patent US20050222114A1, “Use of new etonogestrel esters” (priority 2002, published 2005).
Read-outs that look alike come from different tables or passages of the source.

Experiments:
[1] = Solubility in solvents determined visually (appearance); assay type: physicochemical; conditions: for solubility at two times the desired concentration: all four solvents tested, desired concentration 50 mg/ml etonogestrel-undecanoate, 100 mg/ml MENT-undecanoate
Method: To determine the solubility and viscosity of MENT undecanoate and etonogestrel undecanoate, four different solvents were used: • ethyl undecanoate • ethyl undecanoate+50% benzyl benzoate • arachis oil • arachis oil+50% benzyl benzoate
Using these solvents, the following solutions were prepared: • 100 mg/ml etonogestrel undecanoate in the different solvents • 50 mg/ml etonogestrel undecanoate in the different solvents • 200 mg/ml MENT undecanoate in the different solvents • 100 mg/ml MENT undecanoate in the different solvents • 50 mg/ml etonogestrel undecanoate+100 mg/ml MENT undecanoate in the different solvents
The two combined solvents were prepared by addition of 50 gram of ethyl undecanoate or arachis oil to 50 gram of benzyl benzoate. […] The arachis oil+50% benzyl benzoate solution was not filtered.
The solubility of the compounds in the solvents was determined visually. The viscosity was determined using a Brookfield model DV-III. The density of the solutions was determined using a Mettler Toledo DA-100M density meter.

[2] = Pharmacokinetics of androgen esters after one s.c. injection in castrated rabbits (plasma MENT or testosterone by LC-MSMS); assay type: in vivo; conditions: castrated rabbit, one s.c. injection 20 mg/kg in arachis oil (100 mg/ml)
Method: With LC-MSMS, the amount of parent compound (testosterone or MENT) was determined in these samples.

[3] = Pharmacokinetics of etonogestrel esters after one i.m. injection in rabbits (plasma etonogestrel by LC-MSMS); conditions: rabbit; for initial peak level of etonogestrel in plasma: one i.m. injection 20 mg/kg in arachis oil (40 mg/ml)
Method: (§1) For the determination of the pharmacokinetic profile of the different etonogestrel-esters after parenteral application, i.m. application in the castrated rabbit model was chosen instead of s.c. Briefly, rabbits were injected once (day 1) with indicated etonogestrel-esters at 20 mg/kg in arachis oil (with a concentration of 40 mg/ml). At day 1, 2, 3, 4, 5, 6, 7, 8, 10, 12, 14, 21, 28, 35, 49, 63, 77, 92, 106, 120 and 133 blood was collected from the ear arteria, in EDTA-containing tubes. EDTA plasma was prepared (1500 g, 15 min) and stored at −20° C. With LC-MSMS the amount of parent compound (etonogestrel) was determined in these samples. The lower limit of this new assay is 0.5 nmol/l, from 0-250 nmol/l a linear curve was obtained with a correlation coefficient of 0,9998.

[4] = rabbit, in vivo, 20 mg/kg
Method: as §1

[5] = hypogonadal men, one IM injection, FIG. 5; cited from earlier work
[6] = one i.m. injection 20 mg/kg in arachis oil

## CCCCCCCCCCC(=O)O[C@H]1CC[C@H]2[C@H]3[C@H](CC[C@]12C)[C@H]1CCC(=O)C=C1C[C@H]3C [MENT-undecanoate]
[1]; 200 mg/ml in arachis oil
  heating necessary to dissolve: approximately 50 °C
[1]
  solubility at two times the desired concentration: could be dissolved at two times the desired concentration

## CCCCCCC(=O)O[C@H]1CC[C@H]2[C@@H]3CCC4=CC(=O)CC[C@]4(C)[C@H]3CC[C@]12C [Testosterone-enanthate]
[2]
  pharmacokinetic profile of released MENT or testosterone (in words): high peak of testosterone

## C#CC1(OC(=O)CCCCCCCCC)CCC2C3CCC4=CC(=O)CCC4C3C(=C)CC21CC (stereo not shown) [etonogestrel decanoate]
[3]
  initial peak level of etonogestrel in plasma: 24 nmol/L

## C#C[C@]1(OC(=O)CCCCCCCCCCC)CC[C@H]2[C@@H]3CCC4=CC(=O)CC[C@@H]4[C@H]3C(=C)C[C@@]21CC [etonogestrel dodecanoate]
[3]
  initial peak level of etonogestrel in plasma: 9 nmol/L

## C#C[C@]1(OC(=O)CCCCCC)CC[C@H]2[C@@H]3CCC4=CC(=O)CC[C@@H]4[C@H]3C(=C)C[C@@]21CC [etonogestrel heptanoate]
[3]
  initial peak level of etonogestrel in plasma: 120 nmol/L

## C#C[C@]1(OC(=O)CCCCCCCC)CC[C@H]2[C@@H]3CCC4=CC(=O)CC[C@@H]4[C@H]3C(=C)C[C@@]21CC [etonogestrel nonanoate]
[3]; [6]
  pharmacokinetic profile of released etonogestrel (in words): lower peak levels and extended duration with serum levels of etonogestrel above 1 nmol/l

## C#C[C@]1(OC(=O)CCCCCCCCCCCC)CC[C@H]2[C@@H]3CCC4=CC(=O)CC[C@@H]4[C@H]3C(=C)C[C@@]21CC [etonogestrel tridecanoate]
[3]; [6]
  pharmacokinetic profile of released etonogestrel (in words): no initial levels of etonogestrel were observed

## C#C[C@]1(OC(=O)CCCCCCCCCC)CC[C@H]2[C@@H]3CCC4=CC(=O)CC[C@@H]4[C@H]3C(=C)C[C@@]21CC [etonogestrel undecanoate]
[1]
  solubility at two times the desired concentration: could be dissolved at two times the desired concentration
[3]; [6]
  duration of action: etonogestrel levels above 1 nmol/l: more than 92 days
[3]
  initial peak level of etonogestrel in plasma: 13 nmol/L

## C#C[C@]1(O)CC[C@H]2[C@@H]3CCC4=CC(=O)CC[C@@H]4[C@H]3C(=C)C[C@@]21CC [etonogestrel, (17α)-13-ethyl-17-hydroxy-11-methylene-18,19-dinorpregn-4-en-20-yn-3-one]
[4]
  initial peak level of etonogestrel in plasma: 200 nmol/L

## CCCCCCCCCCC(=O)O[C@H]1CC[C@H]2[C@@H]3CCC4=CC(=O)CC[C@]4(C)[C@H]3CC[C@]12C [testosterone undecanoate]
[5]
  pharmacokinetics of serum testosterone in humans (in words): low initial release and steady-state levels of long duration
